Publication PMC4450297, “Screening Active Compounds from Garcinia Species Native to China Reveals Novel Compounds Targeting the STAT/JAK Signaling Pathway” (BioMed Research International, 2015)

Legend:
Experiment in all cases: Cell panel screen (CellTiter-Glo)
Format in all cases: cell-based, human
BT-549 = BT-549 (Breast), 20 micromolar, 72 hrs
Experimental: (§1) All cells were obtained from the cell bank of the American Type Culture Collection (ATCC) and cultured in the supplier's recommended media supplemented with 10% FBS. The cell panel screen was measured using the CellTiter-Glo assay (Promega, Madison, WI) following a standard protocol. Briefly, cancer cells were seeded in 96-well plates and cultured overnight at 37°C with or without 5% CO2 in an incubator. Each compound was dissolved with limited DMSO and diluted to a certain concentration with culture medium and then added to the corresponding well of the cell plate. The final concentration of compound was 20 μM. The control cells (without treatment) received the same amount of DMSO and were incubated under the same conditions. After 72 h cultivation, 100 μL of the CellTiter-Glo reagent was added directly to each well for 10-minute incubation. The plate was then read on a FlexStation 3 microplate luminometer (Molecular Devices, USA) to monitor the luminescence signal generated by the luciferase-catalyzed reaction of luciferin and ATP. The percent of growth inhibition was calculated using the following formula: (untreated cells − treated cells)/(untreated cells − background without cells) ∗ 100.

Panc 03.27 = Panc 03.27 (Pancreas), 20 micromolar, 72 hrs
Experimental: as §1

NCI-H28 = NCI-H28 (Lung), 20 micromolar, 72 hrs
Experimental: as §1

Bel-7402 = Bel-7402 (Liver), 20 micromolar, 72 hrs
Experimental: as §1

M059J = M059J (Brain), 20 micromolar, 72 hrs
Experimental: as §1

NCI-H1694 = NCI-H1694 (Lung), 20 micromolar, 72 hrs
Experimental: as §1

CW-2 = CW-2 (Colon), 20 micromolar, 72 hrs
Experimental: as §1

T47D = T47D (Breast), 20 micromolar, 72 hrs
Experimental: as §1

RL95 = RL95 (Uterus), 20 micromolar, 72 hrs
Experimental: as §1

NCI-H524 = NCI-H524 (Lung), 20 micromolar, 72 hrs
Experimental: as §1

NCI-H1770 = NCI-H1770 (Lung), 20 micromolar, 72 hrs
Experimental: as §1

CCF-STTG1 = CCF-STTG1 (Brain), 20 micromolar, 72 hrs
Experimental: as §1

ZR-75-30 = ZR-75-30 (Breast), 20 micromolar, 72 hrs
Experimental: as §1

HGC-27 = HGC-27 (Stomach), 20 micromolar, 72 hrs
Experimental: as §1

T98G = T98G (Brain), 20 micromolar, 72 hrs
Experimental: as §1

A704 = A704 (Kidney), 20 micromolar, 72 hrs
Experimental: as §1

HCC1569 = HCC1569 (Breast), 20 micromolar, 72 hrs
Experimental: as §1

MSTO-211-H = MSTO-211-H (Lung), 20 micromolar, 72 hrs
Experimental: as §1

A498 = A498 (listed under Lung), 20 micromolar, 72 hrs
Experimental: as §1

C3A = C3A (Liver), 20 micromolar, 72 hrs
Experimental: as §1

TCCSUP = TCCSUP (Urinary bladder), 20 micromolar, 72 hrs
Experimental: as §1

SW13 = SW13 (Adrenal gland), 20 micromolar, 72 hrs
Experimental: as §1

BT-474 = BT-474 (Breast), 20 micromolar, 72 hrs
Experimental: as §1

HEC-1-A = HEC-1-A (Uterus), 20 micromolar, 72 hrs
Experimental: as §1

J82 = J82 (Urinary bladder), 20 micromolar, 72 hrs
Experimental: as §1

NCI-H1623 = NCI-H1623 (Lung), 20 micromolar, 72 hrs
Experimental: as §1

HCC1599 = HCC1599 (Breast), 20 micromolar, 72 hrs
Experimental: as §1

C8166 = C8166 (Leukemia), 20 micromolar, 72 hrs
Experimental: as §1

NCI-H2405 = NCI-H2405 (Lung), 20 micromolar, 72 hrs
Experimental: as §1

Colo 205 = settings: Colo 205, 20 micromolar, 72 hrs
Experimental: as §1

HCC1937 = HCC1937 (Breast), 20 micromolar, 72 hrs
Experimental: as §1

ChaGo-K-1 = ChaGo-K-1 (Lung), 20 micromolar, 72 hrs
Experimental: as §1

NCI-H2347 = NCI-H2347 (Lung), 20 micromolar, 72 hrs
Experimental: as §1

HCC1395 = HCC1395 (Breast), 20 micromolar, 72 hrs
Experimental: as §1

HT-1197 = HT-1197 (Urinary bladder), 20 micromolar, 72 hrs
Experimental: as §1

HPAF-II = HPAF-II (Pancreas), 20 micromolar, 72 hrs
Experimental: as §1

SMILES	Percent Inhibition (BT-549) [%]	Percent Inhibition (Panc 03.27) [%]	Percent Inhibition (NCI-H28) [%]	Percent Inhibition (Bel-7402) [%]	Percent Inhibition (M059J) [%]	Percent Inhibition (NCI-H1694) [%]	Percent Inhibition (CW-2) [%]	Percent Inhibition (T47D) [%]	Percent Inhibition (RL95) [%]	Percent Inhibition (NCI-H524) [%]	Percent Inhibition (NCI-H1770) [%]	Percent Inhibition (CCF-STTG1) [%]	Percent Inhibition (ZR-75-30) [%]	Percent Inhibition (HGC-27) [%]	Percent Inhibition (T98G) [%]	Percent Inhibition (A704) [%]	Percent Inhibition (HCC1569) [%]	Percent Inhibition (MSTO-211-H) [%]	Percent Inhibition (A498) [%]	Percent Inhibition (C3A) [%]	also measured
COc1c(CC=C(C)C)cc2c(=O)c3c(O)cc(O)cc3oc2c1OC [gl-6]	14	45	39	27	44	46	51	31	46	9	23	45	90	55	31	27	34	16	47	41	Percent Inhibition (TCCSUP): 36%; Percent Inhibition (SW13): 18%; Percent Inhibition (BT-474): 25%; Percent Inhibition (HEC-1-A): 40%; Percent Inhibition (J82): 52%; Percent Inhibition (NCI-H1623): 14%; Percent Inhibition (HCC1599): 42%; Percent Inhibition (C8166): 41%; Percent Inhibition (NCI-H2405): 25%; Percent Inhibition (Colo 205): 43%; Percent Inhibition (HCC1937): 32%; Percent Inhibition (ChaGo-K-1): 59%; Percent Inhibition (NCI-H2347): 22%; Percent Inhibition (HCC1395): 44%; Percent Inhibition (HT-1197): 36%; Percent Inhibition (HPAF-II): 36%
CC(C)=CCc1c(O)cc2oc3cc(O)c(O)c(CCC(C)(C)O)c3c(=O)c2c1O [bn-16, Garcinone C]	74	86	71	91	78	99	95	62	69	98	87	65	94	77	91	62	81	93	65	43	Percent Inhibition (TCCSUP): 88%; Percent Inhibition (SW13): 96%; Percent Inhibition (BT-474): 83%; Percent Inhibition (HEC-1-A): 61%; Percent Inhibition (J82): 85%; Percent Inhibition (NCI-H1623): 67%; Percent Inhibition (HCC1599): 94%; Percent Inhibition (C8166): 88%; Percent Inhibition (NCI-H2405): 73%; Percent Inhibition (Colo 205): 97%; Percent Inhibition (HCC1937): 80%; Percent Inhibition (ChaGo-K-1): 91%; Percent Inhibition (NCI-H2347): 73%; Percent Inhibition (HCC1395): 94%; Percent Inhibition (HT-1197): 85%; Percent Inhibition (HPAF-II): 75%
COc1cc(O)c2c(=O)c3ccc(O)c(O)c3oc2c1CC=C(C)C [gl-17]	65	84	76	60	91	98	96	72	87	98	40	74	98	92	85	42	74	79	75	89	Percent Inhibition (TCCSUP): 83%; Percent Inhibition (SW13): 85%; Percent Inhibition (BT-474): 89%; Percent Inhibition (HEC-1-A): 76%; Percent Inhibition (J82): 88%; Percent Inhibition (NCI-H1623): 41%; Percent Inhibition (HCC1599): 93%; Percent Inhibition (C8166): 90%; Percent Inhibition (NCI-H2405): 19%; Percent Inhibition (Colo 205): 97%; Percent Inhibition (HCC1937): 83%; Percent Inhibition (ChaGo-K-1): 87%; Percent Inhibition (NCI-H2347): 86%; Percent Inhibition (HCC1395): 89%; Percent Inhibition (HT-1197): 95%; Percent Inhibition (HPAF-II): 89%
CC(C)=CCc1c(O)cc2oc3c(c(=O)c2c1O)C(CC=C(C)C)(CC=C(C)C)C(=O)C(O)=C3 [bn-2, Allanxanthone C]	54	48	52	64	51	99	72	54	70	97	90	52	86	53	98	4	63	72	34	39	Percent Inhibition (TCCSUP): 75%; Percent Inhibition (SW13): 15%; Percent Inhibition (BT-474): 22%; Percent Inhibition (HEC-1-A): 51%; Percent Inhibition (J82): 43%; Percent Inhibition (NCI-H1623): 49%; Percent Inhibition (HCC1599): 79%; Percent Inhibition (C8166): 86%; Percent Inhibition (NCI-H2405): 40%; Percent Inhibition (Colo 205): 69%; Percent Inhibition (HCC1937): 75%; Percent Inhibition (ChaGo-K-1): 75%; Percent Inhibition (NCI-H2347): 40%; Percent Inhibition (HCC1395): 84%; Percent Inhibition (HT-1197): 38%; Percent Inhibition (HPAF-II): 28%
